Source: publication PMC4961458 (eLife, 2016)

Key:
[1] = test system: HCI-003 patient derived xenograft tumors; assay: HCI-003 patient derived xenograft efficacy; assay type: in vivo, mice; settings: tamoxifen 60 mg/kg/day orally; fulvestrant 200 mg/kg 3x/week; 38 days
From the text: Like MCF7, HCI-003 tumors are ER+, E2 dependent and tamoxifen sensitive (Figure 4—figure supplement 1C). […] Lack of efficacy in this ER-negative model is consistent with the GDC-0810 mechanism of action being selectively mediated through ER.
The HCI-003 model was established at the University of Utah, Huntsman Cancer Center via direct implantation of both primary tumor material into immune compromised mice ([DeRose et al., 2011]). HCI-003 is wild-type at the ESR1 ligand binding domain. Exogenous estradiol is required for robust growth of this patient derived tumor line, and is supplied in the form of estradiol impregnated beeswax pellets. Tumor fragments obtained from the Huntsman Cancer Center were surgically implanted into the cleared mammary fat pad of 19 day old female NOD.CB17-Prkdc^scid/NcrCrl mice (Charles River Laboratories). The right mammary fat pad of recipient animals was exposed by a 1 cm incision on the ventral mid-line at the level of the fourth mammary. The blood vessels were cauterized and the fat pad blunt dissected from the abdominal wall and skin. Tumor fragments were excised from donor animals, chopped into fragments approximately 8 mm^3 (2 × 2 × 2 mm), implanted in the region of the cleared mammary fat pad, and the incision was closed with wound clips. Estradiol impregnated beeswax pellets were implanted subcutaneously into the interscapular space of recipient animals on the day of tumor implant. Recipient animals were ovariectomized 19 days after tumor fragment implant. One group of animals was designated as a control for estradiol independent tumor growth (Vehicle-E2) and the estradiol impregnated pellets were excised on the first day of dosing. All mice were housed and maintained according to the animal-use guidelines of the Institutional Animal Care and Use Committee (IACUC), conforming to California State legal and ethical practices.

TamR1 tumors = assay: Tamoxifen-resistant MCF7 (TamR1) xenograft efficacy; assay type: in vivo, mice; settings: 0.18 mg 60 day E2 pellets; tamoxifen 120 mg/kg/day p.o.; fulvestrant 200 mg/kg 3x/week s.c.; GDC-0810 10, 30 or 100 mg/kg/day p.o.; 27 days
Method: We previously generated a tamoxifen-resistant xenograft model, TamR1, by chronically treating MCF7 tumor bearing mice with tamoxifen until a resistant tumor emerged ([Lai et al., 2015]). […] These experiments were conducted in mice with relatively high levels of circulating estradiol, with estradiol being delivered via 0.72 mg 60 day release E2 pellets that are reported by the manufacturer (Innovative Research) to deliver between 300 and 400 pg/ml estradiol. Under these conditions the high E2 reduces the steady state ERα protein levels, thus confounding the readout of ERα protein as a pharmacodynamic endpoint (Figure 5—figure supplement 1). […] These pellets are sufficient to support tumor growth but only modestly reduce ERα levels (Figure 5—figure supplement 1).
Figure 5. […] (A) Tamoxifen-resistant MCF7 tumors were implanted in animals supplemented with 60-day release 0.18 mg 17β-estradiol pellets. […] S.c. is sub-cutaneous dosing, and p.o. is per os (by mouth) oral gavage dosing. * Denotes significance (p<0.05) compared to Vehicle in 1-Way ANOVA and Dunnett's Multiple Comparison Test. Figure 5—figure supplement 1. Effects of estradiol pellet on ERα levels in MCF7-TamR1 xenograft tumors. TamR1 tumor fragments were implanted into Crl:NU-Foxn1^nu mice implanted with either 0.72 or 0.18 mg/60 day 17-β estradiol pellets. Once tumors were established pellets were removed from 1 group. 28 days after pellet removal ERα protein levels were determined for 4 tumors from each group. Data is presented as average compared to Vehicle (-E2). Error is standard deviation. * Denotes significance (p<0.05) compared to Vehicle (-E2) by T-test. [drawing 7] […] (A) ERα protein levels were determined by western blot analysis of tumors 8 hr following the final compound treatment on day 27. […] KI-67 expression, quantified from IHC analysis. […]
The tamoxifen-resistant derivative of the ER+ human tumor cell line, MCF7 (TamR1) was developed by Seragon Pharmaceuticals, Inc ([Lai et al., 2015]). […] The tumors which continued to grow under these conditions were serially passaged and evaluated for continued tamoxifen resistance. […]

uterus of juvenile rats = assay: Juvenile rat uterus assays; assay type: in vivo, Sprague Dawley rats; settings: fulvestrant 50 mg/kg
From the text: […] Rats were euthanized 4 hr after the final dose. Uteri were then dissected, weighed and fixed for histological examination. A small portion of tissue was saved prior to fixation for mRNA isolation and gene expression analysis.
H&E stained sections from bilateral representative uterine horn cross-sections were examined from two animals treated with the compounds shown. Endometrial cell height was digitally measured from the basement membrane to the apical (luminal) surface (orange line), using a digitally scanned image at 20X magnification. Obliquely cut areas were avoided. Three digital measurements were taken from each section (n = 6).
Estrogen receptor was detected using the mouse monoclonal anti-ER (clone 1D5, Dako), incubated for 60 min at RT at a dilution of 0.5 µg/ml, and visualized after secondary rabbit anti-mouse antibody binding with Powervision DAB (Leica Powersystems). H-scores were estimated manually, incorporating both intensity and percentage of positive nuclei, using the following formula: (0 x% negative)+(1 x% weak)+(2 x% moderate)+(3 x% strong)

WHIM20 tumors = assay type: in vivo, mice; settings: no E2 pellets; GDC-0810 100 mg/kg/day; tamoxifen 60 mg/kg/day; fulvestrant 50 mg/kg days 1, 3 and 7, 25 mg/kg weekly thereafter; 35 days
From the text: Figure 8. […] (B) Gene expression analysis of WHIM20 tumors after 4 days of dosing, harvested 8 hr after the final dose. […] (E) WHIM20 tumors were implanted in mice without supplemental 17β-estradiol pellets.
The WHIM20 patient derived xenograft model (WHIM20) was established via direct implantation of metastatic tumor material into immune compromised mice at Washington University in St. Louis ([Li et al., 2013]).
Tumors were established from fragments obtained from Washington University by subcutaneous implantation via 10G trocar into the right flank of 6–7 week old female NOD.CB17-Prkdc^scid/NcrCrl mice (Charles River Laboratories) and NOD.Cg-Prkdc^scid Il2rg^tm1Wjl/SzJ mice (Jackson Laboratories). Tumor line was propagated by serial transplantation. Animals were ovariectomized prior to initiation of treatment.

Q: With `CC/C(=C(\c1ccccc1)c1ccc(OCCN(C)C)cc1)c1ccccc1` [Tamoxifen] as the molecule, how does the “Anti-tumor activity, HCI-003 PDX (Figure 4—figure supplement 1C)” value [1] read?
A: display anti-tumor activity

Q: What about the “Tumor growth response, TamR1 xenograft, lower E2” value (TamR1 tumors) of the same molecule?
A: stimulated tumor growth

Q: What about the Uterine wet weight (uterus of juvenile rats; tamoxifen 60 mg/kg orally once a day for 3 days, GDC-0810 0.1 or 10 mg/kg, relative to vehicle control) of the same molecule?
A: increases uterine wet weight

Q: And the “Endometrial epithelial cell morphology (histology, endometrial cell height)” value (uterus of juvenile rats; tamoxifen 60 mg/kg, GDC-0810 0.1 and 10 mg/kg)?
A: induced a cuboidal to columnar morphological change

Q: And the “Tumor growth response, WHIM20 PDX” value (WHIM20 tumors)?
A: induced tumor stasis
